Results from ChEMBL document CHEMBL1201862, “PubChem BioAssay data set” (2004).
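A five-concentration, 48-hour dose response in 96-well plates underlies each endpoint, interpolated linearly between surrounding concentrations. GI50 is the concentration that inhibits growth by half.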 Calls of active or inactive are those of the source. No stated cut-off is given here; in the data, active = GI50 up to about 1.1 µM and inactive = higher.

How the values were obtained:
Experiment in all cases: DTP human tumour cell line panel, 48 h
UACC-257 = test system: UACC-257
A498 = test system: A498
CCRF-CEM = test system: CCRF-CEM
NCI-H460 = test system: NCI-H460
OVCAR-8 = test system: OVCAR-8
HCT-15 = test system: HCT-15
HOP-92 = test system: HOP-92
MOLT-4 = test system: MOLT-4
MCF7 = test system: MCF7
MDA-MB-435 = test system: MDA-MB-435
UO-31 = test system: UO-31
TK-10 = test system: TK-10
RXF 393 = test system: RXF 393
SK-MEL-5 = test system: SK-MEL-5
KM12 = test system: KM12
PC-3 = test system: PC-3
OVCAR-3 = test system: OVCAR-3
SNB-75 = test system: SNB-75
NCI/ADR-RES = test system: NCI/ADR-RES
COLO 205 = test system: COLO 205
SF-295 = test system: SF-295
RPMI-8226 = test system: RPMI-8226
MDA-N = test system: MDA-N
OVCAR-5 = test system: OVCAR-5
DU-145 = test system: DU-145
LOX IMVI = test system: LOX IMVI
IGROV-1 = test system: IGROV-1
NCI-H522 = test system: NCI-H522
HCT-116 = test system: HCT-116
SR = test system: SR
BT-549 = test system: BT-549
CAKI-1 = test system: CAKI-1
Hs-578T = test system: Hs-578T
U-251 = test system: U-251
NCI-H23 = test system: NCI-H23
SNB-19 = test system: SNB-19
SF-539 = test system: SF-539
K562 = test system: K562
EKVX = test system: EKVX
SF-268 = test system: SF-268
OVCAR-4 = test system: OVCAR-4
T47D = test system: T47D
786-0 = test system: 786-0
SK-MEL-2 = test system: SK-MEL-2
HOP-62 = test system: HOP-62
ACHN = test system: ACHN
SN12C = test system: SN12C
M14 = test system: M14
UACC-62 = test system: UACC-62
MDA-MB-231 = test system: MDA-MB-231
SW-620 = test system: SW-620
SK-OV-3 = test system: SK-OV-3
NCI-H226 = test system: NCI-H226
A549 = test system: A549
Malme-3M = test system: Malme-3M
HL-60 = test system: HL-60
HT-29 = test system: HT-29
SK-MEL-28 = test system: SK-MEL-28

c1ccc(-c2ccc(/N=N/N3CCCC3)cc2)cc1
GI50 (UACC-257): > 100 µM (inactive) | GI50 (A498): > 100 µM (inactive) | GI50 (CCRF-CEM): > 100 µM (inactive) | GI50 (NCI-H460): > 100 µM (inactive) | GI50 (OVCAR-8): > 100 µM (inactive) | GI50 (HCT-15): > 100 µM | GI50 (HOP-92): > 100 µM (inactive) | GI50 (MOLT-4): > 100 µM (inactive) | GI50 (MCF7): > 100 µM (inactive) | GI50 (MDA-MB-435): > 100 µM (inactive) | GI50 (UO-31): > 100 µM (inactive) | GI50 (TK-10): > 100 µM (inactive) | GI50 (RXF 393): > 100 µM (inactive) | GI50 (SK-MEL-5): > 100 µM (inactive) | GI50 (KM12): > 100 µM (inactive) | GI50 (PC-3): > 100 µM (inactive) | GI50 (OVCAR-3): > 100 µM (inactive) | GI50 (SNB-75): > 100 µM (inactive) | GI50 (NCI/ADR-RES): > 100 µM (inactive) | GI50 (COLO 205): > 100 µM (inactive) | GI50 (SF-295): > 100 µM (inactive) | GI50 (RPMI-8226): 22.8 µM (inactive) | GI50 (MDA-N): > 100 µM (inactive) | GI50 (OVCAR-5): > 100 µM (inactive) | GI50 (DU-145): > 100 µM (inactive) | GI50 (LOX IMVI): > 100 µM (inactive) | GI50 (IGROV-1): > 100 µM (inactive) | GI50 (NCI-H522): > 100 µM (inactive) | GI50 (HCT-116): > 100 µM (inactive) | GI50 (SR): 7.11 µM (inactive) | GI50 (BT-549): > 100 µM (inactive) | GI50 (CAKI-1): > 100 µM (inactive) | GI50 (Hs-578T): > 100 µM (inactive) | GI50 (U-251): > 100 µM (inactive) | GI50 (NCI-H23): > 100 µM (inactive) | GI50 (SNB-19): > 100 µM (inactive) | GI50 (SF-539): > 100 µM (inactive) | GI50 (K562): > 100 µM (inactive) | GI50 (EKVX): > 100 µM (inactive) | GI50 (SF-268): > 100 µM (inactive) | GI50 (OVCAR-4): > 100 µM (inactive) | GI50 (T47D): > 100 µM (inactive) | GI50 (786-0): > 100 µM (inactive) | GI50 (SK-MEL-2): > 100 µM (inactive) | GI50 (HOP-62): > 100 µM (inactive) | GI50 (ACHN): > 100 µM (inactive) | GI50 (SN12C): > 100 µM (inactive) | GI50 (M14): > 100 µM (inactive) | GI50 (UACC-62): > 100 µM (inactive) | GI50 (MDA-MB-231): > 100 µM (inactive) | GI50 (SW-620): > 100 µM (inactive) | GI50 (SK-OV-3): > 100 µM (inactive) | GI50 (NCI-H226): > 100 µM (inactive)

O=C(O)CN1CCNCCN(CC(=O)O)CCN(CC(=O)O)CCNCC1
GI50 (UACC-257): > 100 µM (inactive) | GI50 (A498): 71.9 µM (inactive) | GI50 (CCRF-CEM): > 100 µM (inactive) | GI50 (NCI-H460): 68.7 µM (inactive) | GI50 (OVCAR-8): 96.2 µM (inactive) | GI50 (HCT-15): 61.9 µM | GI50 (HOP-92): > 100 µM (inactive) | GI50 (MOLT-4): 83.6 µM (inactive) | GI50 (MCF7): 69.8 µM (inactive) | GI50 (MDA-MB-435): > 100 µM (inactive) | GI50 (UO-31): > 100 µM (inactive) | GI50 (TK-10): > 100 µM (inactive) | GI50 (SK-MEL-5): > 100 µM (inactive) | GI50 (KM12): > 100 µM (inactive) | GI50 (PC-3): > 100 µM (inactive) | GI50 (OVCAR-3): 76 µM (inactive) | GI50 (SNB-75): 63.4 µM (inactive) | GI50 (NCI/ADR-RES): 23.3 µM (inactive) | GI50 (COLO 205): 64.1 µM (inactive) | GI50 (SF-295): > 100 µM (inactive) | GI50 (RPMI-8226): > 100 µM (inactive) | GI50 (A549): > 100 µM (inactive) | GI50 (MDA-N): > 100 µM (inactive) | GI50 (OVCAR-5): 97.7 µM (inactive) | GI50 (DU-145): > 100 µM (inactive) | GI50 (LOX IMVI): 91.2 µM (inactive) | GI50 (IGROV-1): > 100 µM (inactive) | GI50 (Malme-3M): > 100 µM (inactive) | GI50 (NCI-H522): 18.2 µM (inactive) | GI50 (HCT-116): 35.2 µM (inactive) | GI50 (SR): 61.1 µM (inactive) | GI50 (BT-549): > 100 µM (inactive) | GI50 (HL-60): 25.9 µM (inactive) | GI50 (CAKI-1): > 100 µM (inactive) | GI50 (Hs-578T): > 100 µM (inactive) | GI50 (U-251): > 100 µM (inactive) | GI50 (SNB-19): > 100 µM (inactive) | GI50 (HT-29): 26.7 µM (inactive) | GI50 (SF-539): 63.7 µM (inactive) | GI50 (K562): 85.3 µM (inactive) | GI50 (EKVX): > 100 µM (inactive) | GI50 (SK-MEL-28): > 100 µM (inactive) | GI50 (OVCAR-4): > 100 µM (inactive) | GI50 (T47D): > 100 µM (inactive) | GI50 (786-0): 93.3 µM (inactive) | GI50 (SK-MEL-2): > 100 µM (inactive) | GI50 (HOP-62): > 100 µM (inactive) | GI50 (ACHN): > 100 µM (inactive) | GI50 (SN12C): > 100 µM (inactive) | GI50 (M14): > 100 µM (inactive) | GI50 (UACC-62): 84.7 µM (inactive) | GI50 (MDA-MB-231): > 100 µM (inactive) | GI50 (SW-620): 41.5 µM (inactive) | GI50 (SK-OV-3): > 100 µM (inactive) | GI50 (NCI-H226): > 100 µM (inactive)
